What was measured:
[1] = target: T1, thromboxane A2 receptor (TP) (Homo sapiens, UniProt P21731); test: Human Thromboxane A2 Receptor Binding Assay; settings: human platelets; 10 nM [3H]SQ29548; 1 hour, room temperature
T1 construct: using human platelets as the source of the receptor; from tissue; host or cells: human platelets (whole platelets, 5x10^7 per well)
T1 sequence (P21731 1-343): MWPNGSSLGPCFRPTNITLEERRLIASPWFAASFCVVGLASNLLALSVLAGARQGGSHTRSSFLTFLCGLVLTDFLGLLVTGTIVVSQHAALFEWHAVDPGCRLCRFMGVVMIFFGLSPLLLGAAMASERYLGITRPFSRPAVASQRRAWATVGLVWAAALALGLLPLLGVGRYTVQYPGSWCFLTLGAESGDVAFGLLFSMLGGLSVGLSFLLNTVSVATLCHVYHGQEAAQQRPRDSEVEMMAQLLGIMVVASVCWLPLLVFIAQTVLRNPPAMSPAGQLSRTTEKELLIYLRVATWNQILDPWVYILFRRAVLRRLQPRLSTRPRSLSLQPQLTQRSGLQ
From the text: The thromboxane A2 receptor (TP) plays a key role in hemostasis as its abnormality leads to bleeding disorders. To avoid the potential liability of bleeding disorders, the binding activity of certain compounds of the present invention against TP was monitored by a receptor binding assay using human platelets as the source of the receptor and [^3H]SQ29548 (generically named (5Z)-[5,6-^3H]-7-[(1S,2R,3R,4R)-3-[[2-[(phenylamino)carbonyl]hydrazinyl]methyl]-7-oxabicyclo[2.2.1]hept-2-yl]-5-heptenoic acid, from PerkinElmer Inc.) as the competing radioactive ligand.
The TP binding reactions (0.2 mL) were performed in 96-well plates at room temperature in PBS containing 5×10^7 platelets, 10 mM MgCl2, 0.06% BSA, 10 nM [^3H]SQ29548, and the test compound at various concentrations. After 1 hour of binding reactions, the platelets were harvested on GF/B filter plates (as previously described from PerkinElmer Inc.) and washed 5 times with PBS using a Filtermate™ Harvester (as previously described from PerkinElmer Inc.). The radioactivities bound to the platelets were determined using a microplate scintillation counter (TopCount® NXT, from PerkinElmer Inc.) after adding 50 μL of Microscint™ 20 scintillation fluid (from PerkinElmer Inc.) to each well of the filter plates. The radioactivity from non-specific binding was determined by replacing the compound with 10 μM of ramatroban (BAY-u3405, from Cayman Chemical Company) in the reaction mixtures. The radioactivity bound to the platelets in the absence of compound (total binding) was determined by replacing the compound with 0.25% of DMSO in the reaction mixture. Specific binding data were obtained by subtracting the radioactivity of non-specific binding from each binding data.
(§1) The IC50 value is defined as the concentration of the tested compound that is required for 50% inhibition of total specific binding. In order to calculate the IC50 value, the percent inhibition data were determined for 7 concentrations for each compound. The percent inhibition for a compound at each concentration was calculated according to the following formula, [1−(specific binding in the presence of compound)/(total specific binding)]×100. The IC50 value was then obtained by fitting the percent inhibition data to a sigmoidal dose-response (4 parameter logistic) model in the XLfit® software Excel add-in program [from ID Business Solutions Ltd., model 205, where F(x)=(A+(B−A)/(1+((C/x)̂D)))].

human CRTH2 = target: T2, human CRTH2 (Homo sapiens, UniProt Q9Y5Y4); test: Human CRTH2 Receptor Binding Assay (whole cell, [3H]ramatroban competition); set-up: expressed in transfected cells; host or cells: CHO-K1 (co-transfected with G-alpha16); settings: CHO-K1 cells expressing human CRTH2 and G-alpha16; 20 nM [3H]ramatroban; 1 hour, room temperature
T2 sequence (Q9Y5Y4 1-395): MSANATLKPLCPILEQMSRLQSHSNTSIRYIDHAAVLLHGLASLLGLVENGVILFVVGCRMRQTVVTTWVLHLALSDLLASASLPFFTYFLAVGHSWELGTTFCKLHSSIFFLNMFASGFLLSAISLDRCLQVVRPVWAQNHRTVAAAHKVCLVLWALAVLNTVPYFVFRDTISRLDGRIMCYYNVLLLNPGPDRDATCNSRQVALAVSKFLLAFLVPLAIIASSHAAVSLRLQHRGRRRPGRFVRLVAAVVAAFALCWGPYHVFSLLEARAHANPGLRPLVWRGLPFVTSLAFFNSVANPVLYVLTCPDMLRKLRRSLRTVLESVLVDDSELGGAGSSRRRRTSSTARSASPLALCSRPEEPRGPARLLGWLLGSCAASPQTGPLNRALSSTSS
From the text: A whole cell receptor binding assay using [^3H]ramatroban as the competing radioactive ligand was employed to evaluate the compound binding activity to human CRTH2. The radioactive ligand [^3H]ramatroban was synthesized according to Sugimoto et. al. (Eur. J. Pharmacol. 524, 30-37, 2005) to a specific activity of 42 Ci/mmol.
A cell line stably expressing human CRTH2 was established by transfecting CHO-K1 cells with two mammalian expression vectors that harbored human CRTH2 and G-alpha16 cDNAs, respectively, using FuGene® 6 transfection reagent (from Roche). Stable clones expressing CRTH2 were selected by staining each clone with BM16 (BD Pharmingen™ from BD Biosciences, a division of Becton, Dickinson and Company), which is a rat monoclonal antibody to human CRTH2. The cells were maintained as monolayer cultures in Ham's F-12 medium containing 10% fetal bovine serum, 100 units/mL penicillin, 100 μg/mL streptomycin, 2 mM glutamine, 0.5 mg/mL G418 (geneticin) for CRTH2, and 0.2 mg/mL hygromycin-B (for G-alpha 16). For whole cell receptor binding assay, the monolayer cells were rinsed once with PBS (phosphate buffered saline), dissociated using ethylenediaminetetraacetate (Versene™ EDTA from Lonza Inc.), and suspended in PBS containing 10 mM MgCl2 and 0.06% BSA (bovine serum albumin) at 1.5×10^6 cells/mL.
The binding reactions (0.2 mL) were performed in 96-well plates at room temperature in PBS containing 1.5×10^5 cells, 10 mM MgCl2, 0.06% BSA, 20 nM [^3H]ramatroban, and test compound at various concentrations. After 1 hour of binding reactions, the cells were harvested on GF™/B filter microplates (microtiter plates with embedded glass fiber from PerkinElmer, Inc.) and washed 5 times with PBS using a Filtermate™ Harvester (a cell harvester that harvests and washes cells from microplates from PerkinElmer, Inc.). The radioactivities bound to the cells were determined using a microplate scintillation counter (TopCount® NXT, from PerkinElmer, Inc.) after adding 50 μL of Microscint™ 20 scintillation fluid (from PerkinElmer, Inc.) to each well of the filter plates. The radioactivity from non-specific binding was determined by replacing compound with 10 μM of 15(R)-15-methyl PGD2 (from Cayman Chemical Company) in the reaction mixtures. The radioactivity bound to the cells in the absence of compound (total binding) was determined by replacing compound with 0.25% of DMSO (dimethyl sulfoxide) in the reaction mixture. Specific binding data were obtained by subtracting the radioactivity of non-specific binding from each binding data.
as §1

Compound | IC50 [1] | IC50 (human CRTH2)
CN([C@@H]1CCCc2c(OCC(=O)O)cccc21)S(=O)(=O)c1cc(F)cc(C(F)(F)F)c1 [Example 1-1, {(R)-5-[(3-fluoro-5-trifluoromethyl-benzenesulfonyl)-methyl-amino]-5,6,7,8-tetrahydro-naphthalen-1-yloxy}-acetic acid] | > 10000 nM | 381 nM
O=C(O)COc1cccc2c1CCC[C@H]2NS(=O)(=O)c1cc(Cl)cc(Cl)c1 [Example 10-1, [(R)-5-(3,5-dichloro-benzenesulfonylamino)-5,6,7,8-tetrahydro-naphthalen-1-yloxy]-acetic acid] | 126 nM | 340 nM
CCOc1cc(C(F)(F)F)cc(S(=O)(=O)N(C)[C@@H]2CCCc3c(OCC(=O)O)cccc32)c1 [Example 9-2, {(R)-5-[(3-ethoxy-5-trifluoromethyl-benzenesulfonyl)-methyl-amino]-5,6,7,8-tetrahydro-naphthalen-1-yloxy}-acetic acid] | > 10000 nM | 399 nM
O=C(O)COc1cccc2c1CCC[C@H]2NS(=O)(=O)c1cc(F)cc(F)c1 [Example 10-5, [(R)-5-(3,5-difluoro-benzenesulfonylamino)-5,6,7,8-tetrahydro-naphthalen-1-yloxy]-acetic acid] | 2420 nM | 13 nM
O=C(O)COc1cccc2c1CCC[C@H]2NS(=O)(=O)c1cc(F)cc(C(F)(F)F)c1 [Example 10-12, [(R)-5-(3-fluoro-5-trifluoromethyl-benzenesulfonylamino)-5,6,7,8-tetrahydro-naphthalen-1-yloxy]-acetic acid] | 342 nM | 20 nM
CN([C@@H]1CCCc2c(OCC(=O)O)cccc21)S(=O)(=O)c1cc(OC2CCCC2)cc(C(F)(F)F)c1 [Example 9-3, {(R)-5-[(3-cyclopentyloxy-5-trifluoromethyl-benzenesulfonyl)-methyl-amino]-5,6,7,8-tetrahydro-naphthalen-1-yloxy}-acetic acid] | 8520 nM | 423 nM
CCN(CC)c1cc(C(F)(F)F)cc(S(=O)(=O)N(C)[C@@H]2CCCc3c(OCC(=O)O)cccc32)c1 [Example 4-2, {(R)-5-[(3-diethylamino-5-trifluoromethyl-benzenesulfonyl)-methyl-amino]-5,6,7,8-tetrahydro-naphthalen-1-yloxy}-acetic acid] | > 10000 nM | 773 nM

Reference: patent US20100041760A1, “MONOARYL AMINOTETRALINES” (priority 2008, published 2010)
